# How the values were obtained:
# [1] = system: nitric oxide production in murine macrophage cells (J774); test: Nitric oxide assay using Griess nitrite assay in LPS-challenged macrophages; assay type: cell-based
# Description: Murine macrophage cell line (J-774) was used to check the anti-inflammatory effects of the extract, sub-fractions and the isolated active compounds. The macrophages are cultured in Dulbeccos Modified Eagles Medium (DMEM) supplemented with antibiotic and antimycotic solution and 10% fetal calf serum at 37° C. in a CO2 incubator (5%). The cell viability was measured using the Trypan blue exclusion method. For inducing the inflammatory conditions the cell were stimulated with LPS (1 μg/ml) and the effect of the compounds on the inflammatory condition was assessed by measuring the inflammatory mediator, nitric oxide and the respective inos gene expression by the murine macrophages.
# The murine macrophage cells release nitric oxide along with other pro-inflammatory molecules, when stimulated with LPS. The cells were preincubated with the crude extract (300 and 500 μg/ml), ethyl ether fraction (50, 100, 150 μg/ml), the isolated active compound (5, 10, 20 μg/ml) and rutin (20, 40, 80 μM) for 2 hours and then challenged with LPS (1 μg/ml) for 16 hours. After 16 hours the cell supernatant was used to measure the nitric oxide production as nitrite using Griess nitrite assay (Lee et al., 2003, Life Science 73, 1401-1412). Equal amount of cell supernatant was incubated with Griess reagent for 10 minutes at room temperature and the magenta color developed was measured using spectrophotometer.
# Each of the four fractions obtained in Example III were then used in different concentrations (50 μg/ml, 100 µg/ml and 150 μg/ml) for their effect on nitric oxide inhibition in vitro. Murine macrophages (J774) were maintained in DMEM medium, 37° C. in CO2 incubator (5% CO2). The cells were harvested and challenged with LPS (Sigma) at a concentration of 1 μg/ml with and without the four test fractions obtained in Example III for 16 hours at 37° C. in the humidified incubator with 5% CO2. After 16 hours the cell free supernatant was collected and the nitric oxide production was measured as described by Lee et al. Briefly 100 μl of supernatant samples were incubated for 10 min at room temperature with an equal volume of Griess reagent (0.1% naphthalene diamine dihydrochloride, 1% sulfanilamide in 5% H2SO4) in microtitre plate. The absorbance at 550 nm was measured. Sodium nitrite was used as the standard.
# [2] = system: murine macrophage cells (J774); test: Cytotoxicity assay using MTT; assay type: cell-based; conditions: for Cell viability (%): J774, MTT
# Description: The murine macrophage cells were plated in cell culture plates and then treated with or without the crude extract/ethyl ether fraction/purified compound. The cells were then washed and challenged with LPS (1 μg/ml) for 16 hours. The MTT (5 mg/ml in PBS) was then added and the cells were further incubated for 4 hours at 37° C. in CO2 incubator. MTT solubilization buffer was then added and absorbance at 590 nm was determined.
# inos gene = test: RT-PCR analysis for inos gene expression; assay type: cell-based, murine
# Description: The murine macrophage cells were preincubated with the test extract, ethyl ether fraction and the compound for 2 hours (as mentioned above), washed and then challenged with LPS for 4 hours. After the incubation period the cells were washed with phosphate buffered saline (PBS), scraped and then pelleted by centrifugation. The total RNA from the pelleted cells was isolated using EZ-RNA isolation kit (Biological industries) using vendor recommended protocol. Then, cDNA was prepared from the total RNA using single strand cDNA synthesis kit (Clontech, USA) and the expression of inos gene was estimated using gene specific primers for inos gene.
# The murine macrophage cells (J774) were challenged with LPS at a concentration of 1 μg/ml with and without the four test fractions obtained in Example III for 4 hours at 37° C. in the humidified incubator with 5% CO2. The cells were harvested and were used to isolate the total RNA using (RNA isolation kit, Qiagen). The RNA was quantified spectrophotometrically and 2 μg of total RNA from each sample was used for cDNA synthesis (cDNA synthesis kit, Clontech). Gene specific PCR for the inducible nitric oxide synthase (inos) and glyceraldehyde-3-phosphatedehyrogenase (G3PDH) as house keeping gene was performed. Primer sequences were designed from cDNA sequences of the specific gene (www:ncbi.nlm.nih.gov/locuslink) using DNASTAR software. […]
# Balb/c mice = test: LPS induced endotoxemia in Balb/c mice, total nitrite in plasma; assay type: in vivo
# Description: The HPLC purified lead compound was suspended in phosphate buffered saline (PBS) at a concentration of 20 mg/ml for in vivo experiment. Balb/c mice, 6 to 8 week of age, weighing 23-25 g, were housed in micro-barrier cages on sterile bedding and fed ad libitum water and food. The animals were divided into three groups containing 6 mice in each group. Four milligrams (160 mg/kg body weight) of the isolated lead compound was administered intra-peritoneally (i.p.) 2 hours prior to LPS challenge. After 2 hours 150 μg LPS was injected i.p., and the mice were kept for 8 hours. In negative control mice, PBS was injected whereas, only LPS injected mice were used as positive control. After 8 hours of LPS injection, the blood was collected in ACD buffer from each mouse by retro-orbital puncture. The blood samples were immediately centrifuged and the plasma samples were collected and stored at −20° C. till nitrite assay. The plasma samples were then diluted 1:1 using 1× reaction buffer (total nitrite estimation kit, R & D systems, USA) and protein from the plasma was removed using 10 kDa centricon (Centricon, USA). Then protein free plasma samples were used for total nitrite estimation (NO^2−+NO^3−) using the same kit.
# The Balb/c mice were used to validate the in vivo effect of the active compound on endotoxin induced inflammation by LPS. Balb/c mice, 6 to 8 week of age, weighing 23-25 g, were housed in micro-barrier cages on sterile bedding and fed ad libitum water and food. The animals were divided into three groups containing 6 mice in each group. Four milligrams (160 mg/kg body weight) of the active compound was preinjected intra-peritonially (i.p.) into the mice for two hours and then LPS (150 μg) was injected i.p. and left for eight hours. […] The plasma from the blood samples were collected by centrifuging at […] for 10 minutes and stored at −80° C. till nitric oxide was analyzed using Griess nitrite assay. The total nitrite in the plasma samples were detected using nitric oxide (NO^2−/NO^3−) assay kit (R & D systems, USA). […]
compound,measurement,setting,value
"C=CC(C)(C)c1cc2cc(O)ccc2oc1=O [Rg-001, 3-(1,1-dimethyl-allyl)-6-hydroxy-chromen-2-one]",Nitric oxide inhibition (%),"[1]; 5 μg (21.74 μM), J774, LPS 1 μg/ml 16 h, 21.74 µM",25.4%
same,Nitric oxide inhibition (%),"[1]; 20 μg (87 μM), J774, LPS 1 μg/ml 16 h, 87 µM",63.5%
same,inhibition of nitric oxide production,"[1]; 5, 10 and 20 μg/ml, J774, LPS",significant inhibition
same,inhibition at 21.74 µM,"[1]; Mus musculus, J774, 16 h, 5 μg (21.74 μM), J774, LPS 1 μg/ml 16 h",25%
same,inhibition at 43.5 µM,"[1]; Mus musculus, J774, 16 h, 10 μg (43.5 μM), J774, LPS 1 μg/ml 16 h",40%
same,inhibition at 87 µM,"[1]; Mus musculus, J774, 16 h, 20 μg (87 μM), J774, LPS 1 μg/ml 16 h",70%
same,Cell viability (%),[2]; 5 μg (21.74 μM),>85%
same,Cell viability (%),[2]; 10 μg (43.5 μM),>85%
same,Cell viability (%),[2]; 20 μg (87 μM),>85%
same,Cell viability (%),"[2]; 20 μg (87 μM), listed as 3-(1,1-dimethyl-allyl)-6-hydroxy-chromen-2-one",> 85%
same,cell viability,[2]; all the doses ranging from 20 to 100 μg/ml,> 85%
same,viability of macrophage cells,"[2]; highest concentration 50 μg i.e. 217.5 μM, MTT",> 85%
same,inhibition of inos gene,inos gene,70%
same,effect on inos gene expression,"inos gene; J774, LPS challenge",inhibit the gene expression significantly
same,inhibition of total nitrite in the plasma samples,"Balb/c mice; 160 mg/kg body weight i.p. 2 hours prior to LPS (150 μg), blood after 8 hours",> 75%
same,behavioral condition of treated mice,"Balb/c mice; 160 mg/kg i.p., 8 hours after LPS, compared to the LPS challenged mice",normal behavioral condition
same,in-vivo inflammation (NO inhibition),Balb/c mice; effective dose of 40 mg/kg to 160 mg/kg body weight,60% to 80
"C[C@@H]1O[C@@H](OC[C@H]2O[C@@H](Oc3c(-c4ccc(O)c(O)c4)oc4cc(O)cc(O)c4c3=O)[C@H](O)[C@@H](O)[C@@H]2O)[C@H](O)[C@H](O)[C@H]1O [Rutin, reference compound]",inhibition at 20 µM,"[1]; Mus musculus, J774, 16 h, 12.2 μg (20 μM), J774, LPS 1 μg/ml 16 h",11%
same,inhibition at 40 µM,"[1]; Mus musculus, J774, 16 h, 24.4 μg (40 μM), J774, LPS 1 μg/ml 16 h",20.6%
same,inhibition at 80 µM,"[1]; Mus musculus, J774, 16 h, 48.8 μg (80 μM), J774, LPS 1 μg/ml 16 h",27%
same,Cell viability (%),[2]; 12.2 μg (20 μM),>85%
same,Cell viability (%),[2]; 24.4 μg (40 μM),>85%
same,Cell viability (%),[2]; 48.8 μg (80 μM),≦75%

# From patent US20080227854A1, “Compound 3-(1, 1-Dimethyl-Allyl)-6-Hydroxy-Chromen-2-One and its Pharmaceutically Acceptable Salts Thereof” (COUNCIL OF SCIENTIFIC & INDUSTRIAL RESEARCH, priority 2007, published 2008)
